In patent US7678918B2, “Intermediates for imidazonaphthyridines” (3M Innovative Properties Company, priority 1997, dated 2010):

What was measured:
[1] = tested on: IFN; assay: Cytokine Induction in Human Cells: interferon (IFN) secreted by PBMCs, A549/encephalomyocarditis bioassay; assay type: cell-based; settings: 18 to 24 hours
Text: (§1) An in vitro human blood cell system was used to assess cytokine induction by compounds of the invention. Activity is based on the measurement of interferon and tumor necrosis factor (ℑ) (IFN and TNF, respectively) secreted into culture media as described by Testerman et. al. In “Cytokine Induction by the Immunomodulators Imiquimod and S-27609”, Journal of Leukocyte Biology, 58, 365-372 (September, 1995). Blood Cell Preparation for Culture
(§2) Whole blood is collected by venipuncture into EDTA vacutainer tubes from healthy human donors. Peripheral blood mononuclear cells (PBMCs) are separated from whole blood by Histopaque®-1077 (Sigma Chemicals, St. Louis, Mo.) density gradient centrifugation. The PBMCs are suspended at 1.5-2×10^6 cells/mL in RPMI 1640 medium containing 10% fetal bovine serum, 2 mM L-glutamine and 1% penicillin/streptomycin solution (RPMI complete). 1 mL portions of PBMC suspension are added to 24 well flat bottom sterile tissue culture plates.
(§3) The compounds are solubilized in dimethyl sulfoxide (DMSO). The DMSO concentration should not exceed a final concentration of 1% for addition to the culture wells. The compounds are generally tested in a concentration range of from 0.1 to 100 μM.
(§4) The solution of test compound is added to the wells containing 1 mL of PBMCs in media. The plates are covered with plastic lids, mixed gently and then incubated for 18 to 24 hours at 37° C. with a 5% carbon dioxide atmosphere.
(§5) Following incubation the plates are centrifuged for 5-10 minutes at 1000 rpm (˜200×g) at 4° C. The cell culture supernatant is removed with a sterile polypropylene pipet and transferred to a 2 mL sterile cryotube. Samples are maintained at −70° C. until analysis.
Interferon is determined by bioassay using A549 human lung carcinoma cells challenged with encephalomyocarditis. The details of the bioassay method have been described by G. L. Brennan and L. H. Kronenberg in “Automated Bioassay of Interferons in Micro-test Plates”, Biotechniques, June/July 78, 1983, incorporated herein by reference. Briefly stated the method is as follows: A549 cells are incubated with samples and standard interferon dilutions at 37° C. for 24 hours. The incubated cells are then infected with an inoculum of encephalomyocarditis virus. The infected cells are incubated for an additional 24 hours at 37° C. before quantifying for viral cytopathic effect. The viral cytopathic effect is quantified by staining followed by visual scoring of the plates. Results are expressed as alpha reference units/mL based on the value obtained for NIH Human Leukocyte IFN standard.

[2] = tested on: TNF; assay: Cytokine Induction in Human Cells: tumor necrosis factor (TNF) secreted by PBMCs, ELISA; assay type: cell-based; settings: 18 to 24 hours
Text: as §1, §2, §3, §4, §5
Tumor necrosis factor (ℑ) (TNF) concentration is determined using an ELISA kit available from Genzyme, Cambridge, Mass. The results are expressed as pg/mL.
Note: call rule not given here.

CCCCc1nc2c(N)nc3cccnc3c2n1CCNC(=O)c1c(C)cc(C)cc1C [Example 143]
IFN induction ([1]; Dose Concentration 1.0 μM): −
IFN induction ([1]; Dose Concentration 10.0 μM): +
IFN induction ([1]; Dose Concentration 100.0 μM): +
TNF induction ([2]; Dose Concentration 1.0 μM): −
TNF induction ([2]; Dose Concentration 10.0 μM): ±
TNF induction ([2]; Dose Concentration 100.0 μM): −

CCCCc1nc2c(N)nc3cccnc3c2n1CCNC(=O)c1ccccc1OC [Example 144]
IFN induction ([1]; Dose Concentration 0.1 μM): +
IFN induction ([1]; Dose Concentration 1.0 μM): +
IFN induction ([1]; Dose Concentration 10.0 μM): +
IFN induction ([1]; Dose Concentration 100.0 μM): +
TNF induction ([2]; Dose Concentration 0.1 μM): −
TNF induction ([2]; Dose Concentration 1.0 μM): +
TNF induction ([2]; Dose Concentration 10.0 μM): +
TNF induction ([2]; Dose Concentration 100.0 μM): +

CCCCc1nc2c(N)nc3cccnc3c2n1CCNC(=O)CCCCC(=O)OC [Example 145]
IFN induction ([1]; Dose Concentration 0.1 μM): −
IFN induction ([1]; Dose Concentration 1.0 μM): −
IFN induction ([1]; Dose Concentration 10.0 μM): +
IFN induction ([1]; Dose Concentration 100.0 μM): +
TNF induction ([2]; Dose Concentration 0.1 μM): −
TNF induction ([2]; Dose Concentration 1.0 μM): +
TNF induction ([2]; Dose Concentration 10.0 μM): +
TNF induction ([2]; Dose Concentration 100.0 μM): +

CCCCc1nc2c(N)nc3cccnc3c2n1CCNC(=O)c1ccc([N+](=O)[O-])o1 [Example 146]
IFN induction ([1]; Dose Concentration 0.1 μM): +
IFN induction ([1]; Dose Concentration 1.0 μM): +
IFN induction ([1]; Dose Concentration 10.0 μM): +
IFN induction ([1]; Dose Concentration 100.0 μM): −
TNF induction ([2]; Dose Concentration 0.1 μM): +
TNF induction ([2]; Dose Concentration 1.0 μM): +
TNF induction ([2]; Dose Concentration 10.0 μM): +
TNF induction ([2]; Dose Concentration 100.0 μM): +

CCCCc1nc2c(N)nc3cccnc3c2n1CCNC(=O)c1cccnc1Cl [Example 147]
IFN induction ([1]; Dose Concentration 0.1 μM): −
IFN induction ([1]; Dose Concentration 1.0 μM): +
IFN induction ([1]; Dose Concentration 10.0 μM): +
IFN induction ([1]; Dose Concentration 100.0 μM): +
TNF induction ([2]; Dose Concentration 0.1 μM): −
TNF induction ([2]; Dose Concentration 1.0 μM): −
TNF induction ([2]; Dose Concentration 10.0 μM): +
TNF induction ([2]; Dose Concentration 100.0 μM): +

CCCCCCCOc1ccc(C(=O)NCCn2c(CCCC)nc3c(N)nc4cccnc4c32)cc1 [Example 149]
IFN induction ([1]; Dose Concentration 0.1 μM): −
IFN induction ([1]; Dose Concentration 1.0 μM): −
IFN induction ([1]; Dose Concentration 10.0 μM): −
IFN induction ([1]; Dose Concentration 100.0 μM): −
TNF induction ([2]; Dose Concentration 0.1 μM): −
TNF induction ([2]; Dose Concentration 1.0 μM): −
TNF induction ([2]; Dose Concentration 10.0 μM): −
TNF induction ([2]; Dose Concentration 100.0 μM): −

CCCCc1nc2c(N)nc3cccnc3c2n1CCNC(=O)c1ccc(C(=O)OC)cc1 [Example 150]
IFN induction ([1]; Dose Concentration 0.1 μM): −
IFN induction ([1]; Dose Concentration 1.0 μM): −
IFN induction ([1]; Dose Concentration 10.0 μM): +
IFN induction ([1]; Dose Concentration 100.0 μM): +
TNF induction ([2]; Dose Concentration 0.1 μM): −
TNF induction ([2]; Dose Concentration 1.0 μM): −
TNF induction ([2]; Dose Concentration 10.0 μM): +
TNF induction ([2]; Dose Concentration 100.0 μM): +

CCCCc1nc2c(N)nc3cccnc3c2n1CCNC(=O)Cc1ccc(OC)cc1 [Example 152]
IFN induction ([1]; Dose Concentration 0.1 μM): −
IFN induction ([1]; Dose Concentration 1.0 μM): −
IFN induction ([1]; Dose Concentration 10.0 μM): +
IFN induction ([1]; Dose Concentration 100.0 μM): +
TNF induction ([2]; Dose Concentration 0.1 μM): −
TNF induction ([2]; Dose Concentration 1.0 μM): −
TNF induction ([2]; Dose Concentration 10.0 μM): +
TNF induction ([2]; Dose Concentration 100.0 μM): +

CCCCc1nc2c(N)nc3cccnc3c2n1CCCCNC(=O)c1cccc(Br)c1 [Example 153]
IFN induction ([1]; Dose Concentration 0.1 μM): −
IFN induction ([1]; Dose Concentration 1.0 μM): +
IFN induction ([1]; Dose Concentration 10.0 μM): +
IFN induction ([1]; Dose Concentration 100.0 μM): −
TNF induction ([2]; Dose Concentration 0.1 μM): −
TNF induction ([2]; Dose Concentration 1.0 μM): +
TNF induction ([2]; Dose Concentration 10.0 μM): +
TNF induction ([2]; Dose Concentration 100.0 μM): −

CCCCc1nc2c(N)nc3cccnc3c2n1CCCCNC(=O)C1(c2ccc(Cl)cc2)CCCC1 [Example 155]
IFN induction ([1]; Dose Concentration 0.1 μM): −
IFN induction ([1]; Dose Concentration 1.0 μM): +
IFN induction ([1]; Dose Concentration 10.0 μM): +
IFN induction ([1]; Dose Concentration 100.0 μM): +
TNF induction ([2]; Dose Concentration 0.1 μM): −
TNF induction ([2]; Dose Concentration 1.0 μM): −
TNF induction ([2]; Dose Concentration 10.0 μM): +
TNF induction ([2]; Dose Concentration 100.0 μM): +

CCCCc1nc2c(N)nc3cccnc3c2n1CCCCNC(=O)COCc1ccccc1 [Example 157]
IFN induction ([1]; Dose Concentration 0.1 μM): +
IFN induction ([1]; Dose Concentration 1.0 μM): +
IFN induction ([1]; Dose Concentration 10.0 μM): +
IFN induction ([1]; Dose Concentration 100.0 μM): −
TNF induction ([2]; Dose Concentration 0.1 μM): −
TNF induction ([2]; Dose Concentration 1.0 μM): −
TNF induction ([2]; Dose Concentration 10.0 μM): +
TNF induction ([2]; Dose Concentration 100.0 μM): −

CCCCc1nc2c(N)nc3cccnc3c2n1CCCCNC(=O)CCCCCCCCC(=O)OC [Example 158]
IFN induction ([1]; Dose Concentration 0.1 μM): −
IFN induction ([1]; Dose Concentration 1.0 μM): +
IFN induction ([1]; Dose Concentration 10.0 μM): +
IFN induction ([1]; Dose Concentration 100.0 μM): +
TNF induction ([2]; Dose Concentration 0.1 μM): −
TNF induction ([2]; Dose Concentration 1.0 μM): −
TNF induction ([2]; Dose Concentration 10.0 μM): +
TNF induction ([2]; Dose Concentration 100.0 μM): −
